US8377974B2 (Millennium Pharmaceuticals, Inc., priority 2004, dated 2013)

Biological target: T1, human plasma protein factor Xa (Homo sapiens, UniProt P00742)
T1 construct: measure proteolytic activity of the enzyme (factor Xa); purchased Haematologic Technologies (Essex Junction, Vt.); host or cells: human plasma
Test: Factor Xa IC50 determination: cleavage of paranitroanilide substrate S-2765 in 96-well plates
Assay type: biochemical
Conditions: fXa 1 nM, S-2765 100 μM, Tris buffered saline pH 7.4, room temperature
Procedure, shortened: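 Human plasma factor Xa (1 nM) preincubated 5 min at room temperature with inhibitor (0.01 nM–10 μM final) in Tris-buffered saline pH 7.4 with 5 mM CaCl2, 0.1% BSA, 5% DMSO. S-2765 at 100 μM final; hydrolysis at 405 nm over 2 min. IC50 from 4-parameter fit of initial velocities.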

T1 sequence (P00742 235-488 limits assumed): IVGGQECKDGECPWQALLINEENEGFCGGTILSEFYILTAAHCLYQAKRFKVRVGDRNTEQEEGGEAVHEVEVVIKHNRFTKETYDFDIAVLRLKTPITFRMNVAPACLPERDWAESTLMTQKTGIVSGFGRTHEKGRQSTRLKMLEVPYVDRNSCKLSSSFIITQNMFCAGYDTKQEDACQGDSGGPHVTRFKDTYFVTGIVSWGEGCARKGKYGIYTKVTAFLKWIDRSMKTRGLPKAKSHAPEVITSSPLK
T1 sequence (P00742 41-179 partner limits assumed): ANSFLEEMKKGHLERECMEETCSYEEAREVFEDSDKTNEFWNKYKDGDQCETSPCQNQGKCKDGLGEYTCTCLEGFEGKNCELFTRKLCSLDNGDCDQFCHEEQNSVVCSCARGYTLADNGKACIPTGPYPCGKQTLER

Compound	IC50 [nM]
O=C(NCC1CC(c2ccc(Nc3ccnc(Cl)c3)cc2)=NO1)c1ccc(Cl)s1 (stereo not drawn) [Example 229, 5-Chloro-thiophene-2-carboxylic acid {3-[4-(2-chloro-pyridin-4-ylamino)-phenyl]-4,5-dihydro-isoxazol-5-ylmethyl}-amide]	100 to 500
COC[C@H]1CCCN1C(=O)c1ccc(C2=NOC(CNC(=O)c3ccc(Cl)s3)C2)cc1 (stereo partly drawn) [Example 398]	100 to 500
C#CCN(C)C(=N)c1ccc(-c2cc(CNC(=O)c3ccc(Cl)s3)on2)cc1 [Example 33, 5-Chloro-thiophene-2-carboxylic acid {3-[4-(N-methyl-N-prop-2-ynyl-carbamimidoyl)-phenyl]-isoxazol-5-ylmethyl}-amide]	100 to 500
O=C(NCc1cc(-c2ccc(-c3ccc(CN4CCCC4)cc3)cc2)no1)c1ccc(Cl)s1 [Example 214, 5-Chloro-thiophene-2-carboxylic acid [3-(4′-pyrrolidin-1-ylmethyl-biphenyl-4-yl)-isoxazol-5-ylmethyl]-amide]	≥ 500
N=C(c1ccc(C2=NOC(CNC(=O)c3ccc(Cl)s3)C2)c(N2CCCC2)c1)N1CCCCC1 (stereo not drawn) [Example 81, 5-Chloro-thiophene-2-carboxylic acid {3-[4-(imino-piperidin-1-yl-methyl)-2-pyrrolidin-1-yl-phenyl]-4,5-dihydro-isoxazol-5-ylmethyl}-amide]	≥ 500
CN(c1ccncc1)c1ccc(-c2cc(CNC(=O)c3ccc(Cl)s3)on2)cc1 [Example 255, 5-Chloro-thiophene-2-carboxylic acid {3-[4-(methyl-pyridin-4-yl-amino)-phenyl]-isoxazol-5-ylmethyl}-amide]	≥ 500
COCCN(C)C(=N)c1ccc(-c2cc(CNC(=O)c3ccc(Cl)s3)on2)cc1 [Example 32, 5-Chloro-thiophene-2-carboxylic acid (3-{4-[N-(2-methoxy-ethyl)-N-methyl-carbamimidoyl]-phenyl}-isoxazol-5-ylmethyl)-amide]	≤ 100
N=C(c1ccc(-c2csc(CNC(=O)c3ccc(Cl)s3)n2)cc1)N1CCCC1 [Example 362, 5-Chloro-N-((4-(4-(imino(pyrrolidin-1-yl)methyl)phenyl)thiazol-2-yl)methyl)thiophene-2-carboxamide]	≥ 500
CC(C)Oc1cc(C(=N)N(C)C)ccc1C1=NOC(CNC(=O)c2ccc(Cl)s2)C1 (stereo not drawn) [Example 109, 5-Chloro-thiophene-2-carboxylic acid {3-[4-(N,N-dimethyl-carbamimidoyl)-2-isopropoxy-phenyl]-4,5-dihydro-isoxazol-5-ylmethyl}-amide]	≤ 100
CN1CCN(c2cc(-n3ccccc3=O)ccc2-n2cc(CNC(=O)c3ccc(Cl)s3)nn2)CC1 [Example 308, 5-Chloro-N-((1-(2-(4-methylpiperazin-1-yl)-4-(2-oxopyridin-1(2H)-yl)phenyl)-1H-1,2,3-triazol-4-yl)methyl)thiophene-2-carboxamide]	≤ 100
COc1ccc(CN2CCCC2)c(-c2ccc(C3=NOC(CNC(=O)c4ccc(Cl)s4)C3)cc2)c1 (stereo not drawn) [Example 203, 5-Chloro-thiophene-2-carboxylic acid [3-(5′-methoxy-2′-pyrrolidin-1-ylmethyl-biphenyl-4-yl)-4,5-dihydro-isoxazol-5-ylmethyl]-amide]	≤ 100
CN(C)Cc1ccc(-c2cccc(C3=NOC(CNC(=O)c4ccc(Cl)s4)C3)c2)cc1 (stereo not drawn) [Example 266, 5-Chloro-thiophene-2-carboxylic acid [3-(4′-dimethylaminomethyl-biphenyl-3-yl)-4,5-dihydro-isoxazol-5-ylmethyl]-amide]	≥ 500
N=C(N)N1CCC(C2=NOC(CNC(=O)c3ccc(Cl)s3)C2)CC1 (stereo not drawn) [Example 172, 5-Chloro-thiophene-2-carboxylic acid [3-(1-carbamimidoyl-piperidin-4-yl)-4,5-dihydro-isoxazol-5-ylmethyl]-amide]	≥ 500
N=C(c1ccc(-c2nc(CNC(=O)c3ccc(Cl)s3)co2)cc1)N1CCC(C(N)=O)CC1 [Example 347, 1-((4-(4-((2-Chlorothiophene-5-carboxamido)methyl)oxazol-2-yl)phenyl)(imino)methyl)piperidine-4-carboxamide]	100 to 500
CC(C)Oc1cc(C(=N)N(C)C)ccc1-c1cc(CNC(=O)c2ccc(Cl)s2)on1 [Example 126, 5-Chloro-thiophene-2-carboxylic acid {3-[4-(N,N-dimethyl-carbamimidoyl)-2-isopropoxy-phenyl]-isoxazol-5-ylmethyl}-amide]	≤ 100
O=C(NCc1cn(-c2ccc(-n3ccccc3=O)cc2)nn1)c1ccc(Cl)s1 [Example 290, 5-Chloro-N-((1-(4-(2-oxopyridin-1(2H)-yl)phenyl)-1H-1,2,3-triazol-4-yl)methyl)thiophene-2-carboxamide]	≤ 100
O=C(NCC1CC(c2ccc(Nc3ccccn3)cc2)=NO1)c1ccc(Cl)s1 (stereo not drawn) [Example 224, 5-Chloro-thiophene-2-carboxylic acid {3-[4-(pyridin-2-ylamino)-phenyl]-4,5-dihydro-isoxazol-5-ylmethyl}-amide]	≥ 500
N=C(c1ccc(-c2cc(CNC(=O)c3ccc(Cl)s3)no2)cc1)N1CCCC1 [Example 332, 5-Chloro-N-((5-(4-(imino(pyrrolidin-1-yl)methyl)phenyl)isoxazol-3-yl)methyl)thiophene-2-carboxamide]	≤ 100

More lines, now with the values ahead:

IC50 [nM]	Compound
≤ 100	Cc1cccn(-c2ccc(-n3cc(CNC(=O)c4ccc(Cl)s4)nn3)cc2)c1=O [Example 293, 5-Chloro-N-((1-(4-(3-methyl-2-oxopyridin-1(2H)-yl)phenyl)-1H-1,2,3-triazol-4-yl)methyl)thiophene-2-carboxamide]
≤ 100	CN1CCN=C1c1ccc(-c2cccc(CNC(=O)c3ccc(Cl)s3)c2)cc1 [Example 381, 5-Chloro-N-((3-(4-(1-methyl-4,5-dihydro-1H-imidazol-2-yl)phenyl)phenyl)methyl)thiophene-2-carboxamide]
≤ 100	CN1CCN=C1c1ccc(-c2nc(CNC(=O)c3ccc(Cl)s3)co2)cc1 [Example 339, 5-Chloro-N-((2-(4-(1-methyl-4,5-dihydro-1H-imidazol-2-yl)phenyl)oxazol-4-yl)methyl)thiophene-2-carboxamide]
≤ 100	N=C(c1ccc(-c2noc(CNC(=O)c3ccc(Cl)s3)n2)cc1)N1CCCC1 [Example 336, 5-Chloro-N-((3-(4-(imino(pyrrolidin-1-yl)methyl)phenyl)-1,2,4-oxadiazol-5-yl)methyl)thiophene-2-carboxamide]
≤ 100	COc1ccc(=O)n(-c2ccc(-n3cc(CNC(=O)c4ccc(Cl)s4)nn3)cc2)c1 [Example 297, 5-Chloro-N-((1-(4-(5-methoxy-2-oxopyridin-1(2H)-yl)phenyl)-1H-1,2,3-triazol-4-yl)methyl)thiophene-2-carboxamide]
≤ 100	O=C(NCC1CC(c2ccc(-c3ccccn3)cc2)=NO1)c1ccc(Cl)s1 (stereo not drawn) [Example 219, 5-Chloro-thiophene-2-carboxylic acid [3-(4-pyridin-2-yl-phenyl)-4,5-dihydro-isoxazol-5-ylmethyl]-amide]
≤ 100	CN(C)Cc1ccc(Cl)cc1-c1ccc(C2=NOC(CNC(=O)c3ccc(Cl)s3)C2)cc1 (stereo not drawn) [Example 204, 5-Chloro-thiophene-2-carboxylic acid [3-(5′-chloro-2′-dimethylaminomethyl-biphenyl-4-yl)-4,5-dihydro-isoxazol-5-ylmethyl]-amide]
≤ 100	CN1CCN=C1c1ccc(-c2cc(CNC(=O)c3ccc(Cl)s3)on2)c(F)c1 [Example 70, 5-Chloro-thiophene-2-carboxylic acid {3-[2-fluoro-4-(1-methyl-4,5-dihydro-1H-imidazol-2-yl)-phenyl]-isoxazol-5-ylmethyl}-amide]
≤ 100	O=C(NCc1cn(-c2ccc(N3CCCNCC3)nc2)nn1)c1ccc(Cl)s1 [Example 384, N-((1-(6-(1,4-Diazepan-1-yl)pyridin-3-yl)-1H-1,2,3-triazol-4-yl)methyl)-5-chlorothiophene-2-carboxamide]
≤ 100	CN1CCN=C1c1ccc(-c2cc(CNC(=O)c3ccc(Cl)s3)on2)c(N(C)C)c1 [Example 95, 5-Chloro-thiophene-2-carboxylic acid {3-[2-dimethylamino-4-(1-methyl-4,5-dihydro-1H-imidazol-2-yl)-phenyl]-isoxazol-5-ylmethyl}-amide]
≤ 100	O=C(NCc1cn(-c2ccc(N3CCOCCC3=O)cc2)nn1)c1ccc(Cl)s1 [Example 303, 5-Chloro-N-((1-(4-(5-oxo-1,4-oxazepan-4-yl)phenyl)-1H-1,2,3-triazol-4-yl)methyl)thiophene-2-carboxamide]
≤ 100	CN(C)C(=N)c1ccc(-c2noc(CNC(=O)c3ccc(Cl)s3)n2)cc1 [Example 334, N-((3-(4-(N,N-Dimethylcarbamimidoyl)phenyl)-1,2,4-oxadiazol-5-yl)methyl)-5-chlorothiophene-2-carboxamide]
≤ 100	N=C(c1ccc(-c2cc(CNC(=O)c3ccc(Cl)s3)on2)c(N2CCOCC2)c1)N1CCCCC1 [Example 101, 5-Chloro-thiophene-2-carboxylic acid {3-[4-(imino-piperidin-1-yl-methyl)-2-morpholin-4-yl-phenyl]-isoxazol-5-ylmethyl}-amide]
≤ 100	N=C(c1ccc(-n2cc(CNC(=O)c3ccc(Cl)s3)cn2)cc1)N1CCCC1 [Example 328, 5-Chloro-N-((1-(4-(imino(pyrrolidin-1-yl)methyl)phenyl)-1H-pyrazol-4-yl)methyl)thiophene-2-carboxamide]
≤ 100	N=C(c1ccc(-c2cc(CNC(=O)c3ccc(Cl)s3)on2)c(F)c1)N1CCCCC1 [Example 72, 5-Chloro-thiophene-2-carboxylic acid {3-[2-fluoro-4-(imino-piperidin-1-yl-methyl)-phenyl]-isoxazol-5-ylmethyl}-amide]
